Tested on: bEnd.3 cells
Test: Cellular ROS levels (DCFH-DA) by single cell analyzer
Format: cell-based
Settings: 2 hours, FIG. 10
Method: (10) The effect of lipid nanoparticles formed from the vincamine derivative (compound 2 (A5-B2-C6) as an example) on cellular ROS levels was detected using a single cell analyzer:
To detect cellular oxidative stress and intracellular reactive oxygen species (ROS) levels, a dichlorodihydrofluorescein diacetate (DCFH-DA) reactive oxygen species assay kit was used to detect the green fluorescence signal of ROS. bEnd.3 cells were seeded in cell culture dishes (50000 cells per dish) and cultured in 1 mL of culture medium for 12 hours. The culture medium in the wells was discarded and replaced with fresh complete medium. Lipid nanoparticles formed from the vincamine derivative (compound 2 (A5-B2-C6)) were added to the cells, and the cells were incubated in the dark at 37° C. in a 5% CO2 atmosphere for 2 hours. The cells in each group were incubated in PBS buffer containing […] DCFH-DA at 37° C. for 30 min. The cells were then washed three times in PBS buffer solution containing 0.1% BSA and fixed on glass slides. ROS levels were detected at the single-cell level using a fiber optic probe with a tip of approximately […]. The tip was inserted into the cells fixed in PBS, and photon counts were continuously detected and calculated within 150 s.

For CCCCCCCC/C=C\CCCCCCCC(=O)OCC(C[N+](C)(C)C)OC(=O)CCCCCCC/C=C\CCCCCCCC (centres unmarked) [DOTAP], the “cellular ROS levels” value was “high ROS levels”.

With CCCCC/C=C\C/C=C\CCCCCCCCC(CCCCCCCC/C=C\C/C=C\CCCCC)OC(=O)CCCN(C)C [Dlin-MC3-DMA] the “cellular ROS levels” value was “high ROS levels”.
